Experimental data reported in PubChem BioAssay (NCI).
Values joined by “and” are separate entries in the source; they are usually repeats but may differ in a detail not shown here. Identical values can stand only once.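 Step 1: Grow cells in 96-well plates. Step 2: Expose to compound for 48 hours at 5 concentrations. Step 3: Interpolate endpoints linearly; if unreached, use highest concentration. Here, GI50 denotes the concentration required for 50% inhibition of growth. TGI marks complete inhibition of growth.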

Experiments:
Test in all cases: NCI tumour cell line growth inhibition, 48 h
[1] = system: KM20L2 colon
[2] = system: XF 498 CNS
[3] = system: TK-10 renal
[4] = system: MCF7 breast
[5] = system: NCI/ADR-RES ovarian
[6] = system: CCRF-CEM leukemia
[7] = system: LOX IMVI melanoma
[8] = system: DU-145 prostate
[9] = system: OVCAR-8 ovarian
[10] = system: MDA-N
[11] = system: A549 NSCLC
[12] = system: OVCAR-5 ovarian
[13] = system: HT29 colon
[14] = system: HOP-18 NSCLC
[15] = system: BT-549 breast
[16] = system: SN12C renal
[17] = system: HCT-15 colon
[18] = system: SN12K1 renal
[19] = system: M14 melanoma
[20] = system: A498 renal
[21] = system: SNB-78 CNS
[22] = system: PC-3 prostate
[23] = system: CAKI-1 renal
[24] = system: T-47D breast
[25] = system: K-562 leukemia
[26] = system: SF-539 CNS
[27] = system: RPMI-8226 leukemia
[28] = system: UACC-62 melanoma
[29] = system: NCI-H522 lung
[30] = system: ACHN renal
[31] = system: HCT-116 colon
[32] = system: OVCAR-4 ovarian
[33] = system: EKVX NSCLC
[34] = system: P388/ADR leukemia
[35] = system: U251 CNS
[36] = system: P388 leukemia
[37] = system: NCI-H226 lung
[38] = system: SR leukemia
[39] = system: SNB-75 CNS
[40] = system: MDA-MB-231 breast
[41] = system: HS 578T breast
[42] = system: IGROV1 ovarian
[43] = system: HCC-2998 colon
[44] = system: SK-MEL-28 melanoma
[45] = system: COLO 205 colon
[46] = system: SF-268 CNS
[47] = system: HOP-92 NSCLC
[48] = system: KM12 colon
[49] = system: DLD-1 colon
[50] = system: NCI-H460 lung
[51] = system: 786-0 renal
[52] = system: SK-OV-3 ovarian
[53] = system: OVCAR-3 ovarian
[54] = system: MOLT-4 leukemia
[55] = system: UO-31 renal

C/C(=C\COc1ccc2ccc(=O)oc2c1)C1=CC(=O)C(C)(C)O1
TGI [1]: 8.53 µM
TGI [2]: 7.74 µM
TGI [3]: 16.7 µM
GI50 [4]: 2.35 µM and 1.09 µM
TGI [4]: 12.9 µM and 5.4 µM
GI50 [5]: 3.81 µM
TGI [5]: > 100 µM and 35.6 µM
GI50 [6]: 2.28 µM
TGI [6]: 7.11 µM and 21.4 µM
GI50 [7]: 2.2 µM
TGI [7]: 9.69 µM and 7.47 µM
TGI [8]: 7.34 µM
GI50 [9]: 2.18 µM
TGI [10]: 16 µM
GI50 [11]: 4.18 µM
TGI [11]: 47.2 µM and 51.9 µM
GI50 [12]: 3.19 µM
TGI [12]: 10.8 µM and 20.9 µM
GI50 [13]: 3.55 µM
TGI [13]: 13.3 µM and 7.83 µM
TGI [14]: 80.5 µM
TGI [15]: 19.1 µM
GI50 [16]: 3.34 µM
TGI [16]: 14.1 µM and 10.8 µM
TGI [17]: 15.9 µM and 19.4 µM
TGI [18]: 9.97 µM
TGI [19]: 16.3 µM
GI50 [20]: 2.79 µM
TGI [20]: 7.32 µM and 9.56 µM
TGI [21]: 61.3 µM
TGI [22]: 23.3 µM
GI50 [23]: 3.77 µM
TGI [23]: 14.6 µM and 19.8 µM
TGI [24]: 30.6 µM
GI50 [25]: 1.85 µM
TGI [26]: 4.88 µM and 8.64 µM
TGI [27]: 6.2 µM and 15.7 µM
GI50 [28]: 2.3 µM
TGI [28]: 6.43 µM and 10.5 µM
GI50 [29]: 2.37 µM and 0.804 µM
TGI [29]: 7.73 µM and 3.76 µM
TGI [30]: 15.9 µM
GI50 [31]: 2.84 µM
TGI [31]: 7.57 µM and 6.64 µM
GI50 [32]: 4.3 µM
TGI [32]: 24.8 µM and 7.56 µM
GI50 [33]: 4.9 µM
TGI [33]: 28.2 µM and 30.6 µM
TGI [34]: 7.3 µM
GI50 [35]: 2.7 µM
TGI [35]: 10.1 µM and 8.61 µM
TGI [36]: 8.39 µM
GI50 [37]: 2.64 µM
TGI [37]: 7.24 µM and 10.2 µM
TGI [38]: 4.92 µM
GI50 [39]: 3.55 µM
TGI [39]: 14.6 µM and 15.4 µM
TGI [40]: 22.9 µM
TGI [41]: 7.3 µM
GI50 [42]: 2.73 µM
TGI [42]: 9.02 µM and 22.1 µM
GI50 [43]: 2.85 µM
TGI [43]: 5.76 µM and 8.34 µM
GI50 [44]: 4.82 µM
TGI [44]: 18.3 µM and 10.1 µM
GI50 [45]: 2.73 µM
TGI [45]: 6.64 µM and 8.96 µM
GI50 [46]: 4.74 µM
TGI [46]: 14.9 µM and 14.3 µM
GI50 [47]: 2.38 µM
TGI [47]: 7.24 µM and 9.92 µM
GI50 [48]: 2.66 µM and 2.35 µM
TGI [48]: 9.77 µM and 8.59 µM
TGI [49]: 30.8 µM
GI50 [50]: 2.61 µM and 4.07 µM
TGI [50]: 6.29 µM and 11.5 µM
TGI [51]: 12.9 µM
GI50 [52]: 3.06 µM
TGI [52]: 8.72 µM and 34.1 µM
GI50 [53]: 2.44 µM
TGI [53]: 5.55 µM and 9.43 µM
GI50 [54]: 3.25 µM
TGI [54]: 15 µM and 20.2 µM
GI50 [55]: 3.83 µM
TGI [55]: 14.7 µM and 14 µM
